Source: publication PMC9506414, “Novel 2,6,9-Trisubstituted Purines as Potent CDK Inhibitors Alleviating Trastuzumab-Resistance of HER2-Positive Breast Cancers” (Pharmaceuticals, 2022)

Columns and labels:
Test in all cases: Kinome-wide inhibition profiling
Type in all cases: biochemical
[1] = target: T1, BTK (Homo sapiens, UniProt Q06187)
T1 construct: purchased Reaction Biology Corp
Protocol: (§1) In vitro CDK12/cyclinK assays for all compounds and in vitro kinome-wide inhibition profiling of 30d at 10 μM were performed by a CRO company (Reaction Biology Corp., San Diego, CA, USA).

[2] = target: T2, CIT (Homo sapiens, UniProt O14578)
T2 construct: purchased Reaction Biology Corp
Protocol: as §1

[3] = target: T3, CLK3 (Homo sapiens, UniProt P49761)
T3 construct: purchased Reaction Biology Corp
Protocol: as §1

[4] = target: T4, CSNK1E (Homo sapiens, UniProt P49674)
T4 construct: purchased Reaction Biology Corp
Protocol: as §1

[5] = target: T5, DCAMKL2 (Homo sapiens, UniProt Q8N568)
T5 construct: purchased Reaction Biology Corp
Protocol: as §1

[6] = target: T6, EPHA7 (Homo sapiens, UniProt Q15375)
T6 construct: purchased Reaction Biology Corp
T6 sequence (Q15375 28-998): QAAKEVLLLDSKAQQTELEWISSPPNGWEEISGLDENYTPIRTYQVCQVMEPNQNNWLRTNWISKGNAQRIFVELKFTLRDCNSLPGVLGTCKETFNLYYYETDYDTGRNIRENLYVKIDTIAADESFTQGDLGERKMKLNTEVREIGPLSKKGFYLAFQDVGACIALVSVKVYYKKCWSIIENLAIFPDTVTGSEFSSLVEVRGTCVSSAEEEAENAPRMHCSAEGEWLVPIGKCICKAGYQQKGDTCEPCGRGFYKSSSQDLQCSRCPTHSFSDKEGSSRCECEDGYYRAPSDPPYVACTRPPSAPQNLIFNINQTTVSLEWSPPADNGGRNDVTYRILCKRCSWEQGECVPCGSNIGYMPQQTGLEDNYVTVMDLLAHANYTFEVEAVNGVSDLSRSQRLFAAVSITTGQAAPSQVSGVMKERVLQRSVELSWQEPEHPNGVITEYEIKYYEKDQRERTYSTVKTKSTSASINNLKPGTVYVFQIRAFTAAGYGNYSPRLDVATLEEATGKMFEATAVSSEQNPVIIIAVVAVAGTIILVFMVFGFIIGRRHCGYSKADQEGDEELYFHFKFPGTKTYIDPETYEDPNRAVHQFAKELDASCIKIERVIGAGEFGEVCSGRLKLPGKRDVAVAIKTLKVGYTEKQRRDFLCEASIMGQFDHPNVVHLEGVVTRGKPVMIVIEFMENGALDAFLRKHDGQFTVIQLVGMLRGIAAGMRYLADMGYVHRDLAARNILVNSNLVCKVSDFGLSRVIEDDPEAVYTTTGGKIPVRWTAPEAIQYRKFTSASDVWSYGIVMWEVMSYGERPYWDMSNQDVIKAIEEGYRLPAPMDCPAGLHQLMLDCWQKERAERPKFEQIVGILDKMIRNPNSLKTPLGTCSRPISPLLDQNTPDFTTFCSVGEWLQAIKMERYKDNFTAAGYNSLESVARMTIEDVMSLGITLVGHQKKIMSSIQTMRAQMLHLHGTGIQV
Protocol: as §1

[7] = target: T7, EPHB3 (Homo sapiens, UniProt P54753)
T7 construct: purchased Reaction Biology Corp
Protocol: as §1

[8] = target: T8, EPHB4 (Homo sapiens, UniProt P54760)
T8 construct: purchased Reaction Biology Corp
Protocol: as §1

[9] = target: T9, FGFR1 (Homo sapiens, UniProt P11362)
T9 construct: purchased Reaction Biology Corp
Protocol: as §1

[10] = target: T10, FGFR4 (Homo sapiens, UniProt P22455)
T10 construct: purchased Reaction Biology Corp
Protocol: as §1

[11] = target: T11, GRK1 (Homo sapiens, UniProt Q15835)
T11 construct: purchased Reaction Biology Corp
Protocol: as §1

[12] = target: T12, GSK3b (Homo sapiens, UniProt P49841)
T12 construct: purchased Reaction Biology Corp
T12 sequence (P49841 whole entry): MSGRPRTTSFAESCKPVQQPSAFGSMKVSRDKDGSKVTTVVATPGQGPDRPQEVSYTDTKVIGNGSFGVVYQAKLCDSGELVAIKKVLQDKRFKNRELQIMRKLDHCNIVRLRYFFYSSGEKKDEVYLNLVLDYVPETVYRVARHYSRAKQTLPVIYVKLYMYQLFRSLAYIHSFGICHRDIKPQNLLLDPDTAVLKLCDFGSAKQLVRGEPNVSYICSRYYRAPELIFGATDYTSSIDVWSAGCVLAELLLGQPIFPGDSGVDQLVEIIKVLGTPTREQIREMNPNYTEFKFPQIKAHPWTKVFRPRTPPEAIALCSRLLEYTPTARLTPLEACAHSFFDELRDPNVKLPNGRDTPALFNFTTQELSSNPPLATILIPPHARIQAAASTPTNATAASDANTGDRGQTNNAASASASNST
Protocol: as §1

[13] = target: T13, IKK-beta (Homo sapiens, UniProt O14920)
T13 construct: purchased Reaction Biology Corp
Protocol: as §1

[14] = target: T14, JNK1 (Homo sapiens, UniProt P45983)
T14 construct: purchased Reaction Biology Corp
Protocol: as §1

[15] = target: T15, LIMK2 (Homo sapiens, UniProt P53671)
T15 construct: purchased Reaction Biology Corp
T15 sequence (P53671 whole entry): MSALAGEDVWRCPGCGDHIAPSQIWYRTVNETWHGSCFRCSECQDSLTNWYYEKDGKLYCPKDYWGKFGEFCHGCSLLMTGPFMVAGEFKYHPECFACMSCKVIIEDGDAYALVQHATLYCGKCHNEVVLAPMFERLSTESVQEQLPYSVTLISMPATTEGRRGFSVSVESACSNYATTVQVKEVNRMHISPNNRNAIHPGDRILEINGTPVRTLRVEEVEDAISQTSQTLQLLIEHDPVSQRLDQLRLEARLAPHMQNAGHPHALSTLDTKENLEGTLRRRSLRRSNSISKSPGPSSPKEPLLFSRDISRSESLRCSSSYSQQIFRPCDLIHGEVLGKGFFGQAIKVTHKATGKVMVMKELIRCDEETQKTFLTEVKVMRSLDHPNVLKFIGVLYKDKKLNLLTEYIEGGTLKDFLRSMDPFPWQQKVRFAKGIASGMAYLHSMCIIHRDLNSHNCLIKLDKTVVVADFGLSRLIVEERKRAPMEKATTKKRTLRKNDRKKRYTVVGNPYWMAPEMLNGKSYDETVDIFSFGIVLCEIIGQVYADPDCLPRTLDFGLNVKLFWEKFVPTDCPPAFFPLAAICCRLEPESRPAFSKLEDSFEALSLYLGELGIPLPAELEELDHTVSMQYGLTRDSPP
Protocol: as §1

[16] = target: T16, MAPKAPK5 (Homo sapiens, UniProt Q8IW41)
T16 construct: purchased Reaction Biology Corp
Protocol: as §1

[17] = target: T17, MARK1 (Homo sapiens, UniProt Q9P0L2)
T17 construct: purchased Reaction Biology Corp
Protocol: as §1

[18] = target: T18, NDR1 (Homo sapiens, UniProt Q15208)
T18 construct: purchased Reaction Biology Corp
Protocol: as §1

[19] = target: T19, NEK5 (Homo sapiens, UniProt Q6P3R8)
T19 construct: purchased Reaction Biology Corp
Protocol: as §1

[20] = target: T20, NEK6 (Homo sapiens, UniProt Q9HC98)
T20 construct: purchased Reaction Biology Corp
T20 sequence (Q9HC98 whole entry): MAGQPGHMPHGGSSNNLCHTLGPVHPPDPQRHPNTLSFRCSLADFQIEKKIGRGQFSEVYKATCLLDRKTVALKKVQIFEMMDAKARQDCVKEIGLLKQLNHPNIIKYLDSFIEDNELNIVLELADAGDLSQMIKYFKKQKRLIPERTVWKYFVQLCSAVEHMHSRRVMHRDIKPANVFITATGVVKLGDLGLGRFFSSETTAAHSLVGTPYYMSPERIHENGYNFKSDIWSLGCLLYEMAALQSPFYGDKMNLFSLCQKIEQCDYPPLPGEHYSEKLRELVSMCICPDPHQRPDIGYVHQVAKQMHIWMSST
Protocol: as §1

[21] = target: T21, NEK7 (Homo sapiens, UniProt Q8TDX7)
T21 construct: purchased Reaction Biology Corp
Protocol: as §1

[22] = target: T22, NEK9 (Homo sapiens, UniProt Q8TD19)
T22 construct: purchased Reaction Biology Corp
Protocol: as §1

[23] = target: T23, P38-alpha (Homo sapiens, UniProt Q16539)
T23 construct: purchased Reaction Biology Corp
Protocol: as §1

[24] = target: T24, PAK6 (Homo sapiens, UniProt Q9NQU5)
T24 construct: purchased Reaction Biology Corp
Protocol: as §1

[25] = target: T25, PFTK1 (Homo sapiens, UniProt O94921)
T25 construct: purchased Reaction Biology Corp
T25 sequence (O94921 whole entry): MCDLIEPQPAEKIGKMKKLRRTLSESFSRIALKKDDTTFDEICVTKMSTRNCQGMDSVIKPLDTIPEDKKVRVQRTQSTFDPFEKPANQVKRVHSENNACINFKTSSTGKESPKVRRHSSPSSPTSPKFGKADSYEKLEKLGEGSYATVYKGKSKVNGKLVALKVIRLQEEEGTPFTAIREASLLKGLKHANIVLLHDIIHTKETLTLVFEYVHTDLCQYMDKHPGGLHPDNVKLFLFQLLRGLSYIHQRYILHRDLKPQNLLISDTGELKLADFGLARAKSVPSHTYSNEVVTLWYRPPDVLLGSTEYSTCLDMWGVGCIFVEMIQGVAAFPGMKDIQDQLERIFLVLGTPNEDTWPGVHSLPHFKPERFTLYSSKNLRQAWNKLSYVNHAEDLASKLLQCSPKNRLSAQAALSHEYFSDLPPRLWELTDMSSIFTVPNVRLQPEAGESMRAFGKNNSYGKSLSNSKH
T25 sequence (Q8ND76 whole entry partner): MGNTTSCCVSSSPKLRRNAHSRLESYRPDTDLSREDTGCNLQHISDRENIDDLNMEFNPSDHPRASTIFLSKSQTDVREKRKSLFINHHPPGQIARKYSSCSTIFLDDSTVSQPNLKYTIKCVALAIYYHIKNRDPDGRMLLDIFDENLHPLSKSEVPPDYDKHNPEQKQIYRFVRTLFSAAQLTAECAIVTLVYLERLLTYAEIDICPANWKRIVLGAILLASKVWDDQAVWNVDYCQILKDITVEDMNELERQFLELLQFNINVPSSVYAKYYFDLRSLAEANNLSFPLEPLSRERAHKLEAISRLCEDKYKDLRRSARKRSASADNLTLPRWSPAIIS
Protocol: as §1

[26] = target: T26, PKA (Homo sapiens, UniProt P17612)
T26 construct: purchased Reaction Biology Corp
Protocol: as §1

[27] = target: T27, PKAC-beta (Homo sapiens, UniProt P22694)
T27 construct: purchased Reaction Biology Corp
Protocol: as §1

[28] = target: T28, PRKCH (Homo sapiens, UniProt P24723)
T28 construct: purchased Reaction Biology Corp
Protocol: as §1

[29] = target: T29, RAF1 (Homo sapiens, UniProt P04049)
T29 construct: purchased Reaction Biology Corp
Protocol: as §1

[30] = target: T30, RIPK2 (Homo sapiens, UniProt O43353)
T30 construct: purchased Reaction Biology Corp
Protocol: as §1

[31] = target: T31, ROCK1 (Homo sapiens, UniProt Q13464)
T31 construct: purchased Reaction Biology Corp
Protocol: as §1

[32] = target: T32, SGK3 (Homo sapiens, UniProt Q96BR1)
T32 construct: purchased Reaction Biology Corp
Protocol: as §1

[33] = target: T33, SIK (Homo sapiens, UniProt P57059)
T33 construct: purchased Reaction Biology Corp
Protocol: as §1

[34] = target: T34, SLK (Homo sapiens, UniProt Q9H2G2)
T34 construct: purchased Reaction Biology Corp
Protocol: as §1

[35] = target: T35, STK23 (Homo sapiens, UniProt Q9UPE1)
T35 construct: purchased Reaction Biology Corp
Protocol: as §1

[36] = target: T36, STK39 (Homo sapiens, UniProt Q9UEW8)
T36 construct: purchased Reaction Biology Corp
Protocol: as §1

[37] = target: T37, Src (Homo sapiens, UniProt P12931)
T37 construct: purchased Reaction Biology Corp
Protocol: as §1

[38] = target: T38, TEC (Homo sapiens, UniProt P42680)
T38 construct: purchased Reaction Biology Corp
Protocol: as §1

[39] = target: T39, TESK2 (Homo sapiens, UniProt Q96S53)
T39 construct: purchased Reaction Biology Corp
Protocol: as §1

[40] = target: T40, TNIK (Homo sapiens, UniProt Q9UKE5)
T40 construct: purchased Reaction Biology Corp
Protocol: as §1

[41] = target: T41, TRKA (Homo sapiens, UniProt P04629)
T41 construct: purchased Reaction Biology Corp
T41 sequence (P04629 33-796): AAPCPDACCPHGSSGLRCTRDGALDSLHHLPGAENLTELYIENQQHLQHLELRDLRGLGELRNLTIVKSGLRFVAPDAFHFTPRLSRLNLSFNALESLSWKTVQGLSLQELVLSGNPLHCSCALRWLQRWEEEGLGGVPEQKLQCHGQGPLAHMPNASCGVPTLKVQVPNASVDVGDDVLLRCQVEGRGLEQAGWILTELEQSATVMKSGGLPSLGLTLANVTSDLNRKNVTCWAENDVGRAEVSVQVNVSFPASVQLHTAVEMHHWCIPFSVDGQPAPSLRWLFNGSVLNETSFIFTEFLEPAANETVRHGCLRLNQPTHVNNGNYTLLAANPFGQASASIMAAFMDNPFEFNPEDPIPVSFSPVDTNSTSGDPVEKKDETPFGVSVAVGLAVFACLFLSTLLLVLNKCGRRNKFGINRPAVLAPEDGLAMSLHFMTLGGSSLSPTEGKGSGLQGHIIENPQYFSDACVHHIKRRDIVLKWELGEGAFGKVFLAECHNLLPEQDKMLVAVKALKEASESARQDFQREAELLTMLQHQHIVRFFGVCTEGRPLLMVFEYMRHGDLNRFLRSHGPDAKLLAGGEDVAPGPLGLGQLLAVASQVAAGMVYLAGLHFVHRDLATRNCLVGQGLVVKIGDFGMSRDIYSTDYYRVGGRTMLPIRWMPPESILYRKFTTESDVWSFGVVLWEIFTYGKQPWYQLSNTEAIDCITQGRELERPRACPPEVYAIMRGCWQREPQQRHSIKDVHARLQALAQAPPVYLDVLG
Protocol: as §1

[42] = target: T42, TSSK2 (Homo sapiens, UniProt Q96PF2)
T42 construct: purchased Reaction Biology Corp
Protocol: as §1

[43] = target: T43, ULK1 (Homo sapiens, UniProt O75385)
T43 construct: purchased Reaction Biology Corp
Protocol: as §1

[44] = target: T44, YSK1 (Homo sapiens, UniProt O00506)
T44 construct: purchased Reaction Biology Corp
T44 sequence (O00506 whole entry): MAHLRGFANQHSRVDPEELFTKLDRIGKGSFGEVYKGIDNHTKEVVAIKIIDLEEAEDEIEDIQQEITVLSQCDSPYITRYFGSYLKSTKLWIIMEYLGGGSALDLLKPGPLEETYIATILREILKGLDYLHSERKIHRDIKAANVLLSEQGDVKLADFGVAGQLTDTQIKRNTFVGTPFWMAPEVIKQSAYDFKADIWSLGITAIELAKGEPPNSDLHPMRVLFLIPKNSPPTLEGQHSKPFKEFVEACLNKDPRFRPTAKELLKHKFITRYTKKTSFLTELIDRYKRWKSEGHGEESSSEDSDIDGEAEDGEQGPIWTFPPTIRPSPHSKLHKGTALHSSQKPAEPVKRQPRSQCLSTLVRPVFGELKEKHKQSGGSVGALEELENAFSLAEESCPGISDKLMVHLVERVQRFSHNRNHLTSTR
Protocol: as §1

T1 sequence (Q06187 whole entry): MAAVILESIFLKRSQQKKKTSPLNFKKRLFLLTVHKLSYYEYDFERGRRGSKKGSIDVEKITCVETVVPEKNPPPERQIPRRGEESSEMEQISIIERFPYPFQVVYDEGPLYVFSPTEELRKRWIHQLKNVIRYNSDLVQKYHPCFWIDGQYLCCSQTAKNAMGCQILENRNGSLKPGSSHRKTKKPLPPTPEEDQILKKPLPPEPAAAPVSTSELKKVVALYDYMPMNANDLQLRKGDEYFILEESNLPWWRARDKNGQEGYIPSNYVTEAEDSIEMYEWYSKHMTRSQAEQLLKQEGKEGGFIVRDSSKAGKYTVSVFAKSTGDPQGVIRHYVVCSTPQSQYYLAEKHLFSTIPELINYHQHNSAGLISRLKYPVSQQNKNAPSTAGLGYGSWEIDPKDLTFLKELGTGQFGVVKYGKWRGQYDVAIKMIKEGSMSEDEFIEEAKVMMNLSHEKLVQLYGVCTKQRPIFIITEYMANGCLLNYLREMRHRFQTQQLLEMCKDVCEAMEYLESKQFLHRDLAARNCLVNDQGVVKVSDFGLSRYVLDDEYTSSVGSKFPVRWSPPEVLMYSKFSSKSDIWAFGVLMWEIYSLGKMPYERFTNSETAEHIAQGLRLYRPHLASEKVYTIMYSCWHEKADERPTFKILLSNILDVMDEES

Which remaining activity at 10 µM [1] does the source give for `CCn1cnc2c(NCc3ccc(-c4ccccn4)nc3)nc(-c3ccc(N)nc3)nc21` [Compound 30d, N-([2,2′-Bipyridin]-5-ylmethyl)-2-(6-aminopyridin-3-yl)-9-ethyl-9H-purin-6-amine] here?
The remaining activity at 10 µM was 103%.

And the remaining activity at 10 µM [2]?
Its remaining activity at 10 µM is 97.9%.

What about the remaining activity at 10 µM [3] of the same compound?
The remaining activity at 10 µM was 94.6%.

And the remaining activity at 10 µM [4]?
The remaining activity at 10 µM was 22.9%.

What about the remaining activity at 10 µM [5] of the same compound?
Its remaining activity at 10 µM is 55%.

And the remaining activity at 10 µM [6]?
Its remaining activity at 10 µM is 31.3%.

What about the remaining activity at 10 µM [7] of the same compound?
Its remaining activity at 10 µM is 66%.

What about the remaining activity at 10 µM [8] of the same compound?
Its remaining activity at 10 µM is 23.2%.

And the remaining activity at 10 µM [9]?
The remaining activity at 10 µM was 28.8%.

What about the remaining activity at 10 µM [10] of the same compound?
Its remaining activity at 10 µM is 87.4%.

What about the remaining activity at 10 µM [11] of the same compound?
Its remaining activity at 10 µM is 76.3%.

What about the remaining activity at 10 µM [12] of the same compound?
Its remaining activity at 10 µM is 5.8%.

And the remaining activity at 10 µM [13]?
Its remaining activity at 10 µM is 83.7%.

What about the remaining activity at 10 µM [14] of the same compound?
The remaining activity at 10 µM was 41.6%.

What about the remaining activity at 10 µM [15] of the same compound?
The remaining activity at 10 µM was 76.5%.

What about the remaining activity at 10 µM [16] of the same compound?
Its remaining activity at 10 µM is 103%.

And the remaining activity at 10 µM [17]?
Its remaining activity at 10 µM is 81.5%.

And the remaining activity at 10 µM [18]?
Its remaining activity at 10 µM is 28.3%.

What about the remaining activity at 10 µM [19] of the same compound?
The remaining activity at 10 µM was 83.8%.

What about the remaining activity at 10 µM [20] of the same compound?
The remaining activity at 10 µM was 92.1%.

What about the remaining activity at 10 µM [21] of the same compound?
Its remaining activity at 10 µM is 93.2%.

And the remaining activity at 10 µM [22]?
The remaining activity at 10 µM was 90%.

And the remaining activity at 10 µM [23]?
Its remaining activity at 10 µM is 84.2%.

And the remaining activity at 10 µM [24]?
The remaining activity at 10 µM was 57.2%.

And the remaining activity at 10 µM [25]?
The remaining activity at 10 µM was 14%.

What about the remaining activity at 10 µM [26] of the same compound?
Its remaining activity at 10 µM is 93.1%.

And the remaining activity at 10 µM [27]?
Its remaining activity at 10 µM is 104%.

What about the remaining activity at 10 µM [28] of the same compound?
The remaining activity at 10 µM was 87.9%.

And the remaining activity at 10 µM [29]?
The remaining activity at 10 µM was 68.6%.

And the remaining activity at 10 µM [30]?
The remaining activity at 10 µM was 66.1%.

And the remaining activity at 10 µM [31]?
The remaining activity at 10 µM was 97.2%.

And the remaining activity at 10 µM [32]?
Its remaining activity at 10 µM is 92.6%.

And the remaining activity at 10 µM [33]?
The remaining activity at 10 µM was 56.3%.

And the remaining activity at 10 µM [34]?
Its remaining activity at 10 µM is 69.5%.

What about the remaining activity at 10 µM [35] of the same compound?
The remaining activity at 10 µM was 82.8%.

What about the remaining activity at 10 µM [36] of the same compound?
Its remaining activity at 10 µM is 29.6%.

And the remaining activity at 10 µM [37]?
The remaining activity at 10 µM was 60.1%.

And the remaining activity at 10 µM [38]?
The remaining activity at 10 µM was 71.5%.

What about the remaining activity at 10 µM [39] of the same compound?
The remaining activity at 10 µM was 83.7%.

What about the remaining activity at 10 µM [40] of the same compound?
The remaining activity at 10 µM was 69%.

And the remaining activity at 10 µM [41]?
Its remaining activity at 10 µM is 28.7%.

And the remaining activity at 10 µM [42]?
The remaining activity at 10 µM was 85.3%.

What about the remaining activity at 10 µM [43] of the same compound?
Its remaining activity at 10 µM is 70.3%.

What about the remaining activity at 10 µM [44] of the same compound?
The remaining activity at 10 µM was 23.1%.
